Test results: patent publication US20220331458A1, “AGENTS FOR CLEAVING LABELS FROM BIOMOLECULES IN VIVO” (TAGWORKS PHARMACEUTICALS B.V., priority 2019, published 2022)
Marks after values point to notes of the source that are not given here.

Legend:
[1] = design: species or system mice; conditions: female, Balb/C nude, mouse, in vivo
Description: Blood samples were withdrawn 5 min before and at various times after Cleaving Agent administration and the radioactivity was measured in a gamma-counter.

[2] = system: radiolabeled mAb-conjugates; assay: In vitro Label release from radiolabeled mAb-TCO-chelate conjugates incubated with Cleaving Agents (SEC); conditions: 37°C, 15-24 h
Description: Briefly, mAb solutions in PBS (4 mg/mL final concentration) were added with 15-20 eq of the NHS-derivative (dissolved at 10 mg/mL in DMSO) and the pH was adjusted to 9 with 1M sodium carbonate. The reaction mixtures were incubated at rt in the dark for 2 h then the products were purified by dialysis (20 kDa MW cut-off membranes) in chelex-treated 0.25M NH4OAc pH 5.5.
After 15-24 h incubation the mixtures were analyzed by SEC and the amount of released Label was quantified from the radioactivity elution profile.

[3] = Radioactivity in blood and tumors stated jointly for LS174T and BT-474 tumor-bearing mice (^111In-trastuzumab-1.8, 2.10); assay type: in vivo; conditions: ^111In-trastuzumab-1.8 followed by 2.10 48 h post-injection
Description: Female Balb/C mice were injected ca 1 million LS174T colon carcinoma cells or 10 million BT-474 breast cancer cells s.c. in the flank. […] Control groups were euthanized 72 h post-mAb injection.

[4] = ^111In biodistribution in normal mice after ^111In-trastuzumab-1.8 followed by 2.10 or vehicle; assay type: in vivo
[5] = Label release from TCO derivative 1.8 on trastuzumab, ^111In, 50% mouse plasma in PBS
[6] = ^111In-trastuzumab-1.8 followed by 2.10 1 h post-mAb, euthanized 24 h later, SD, n = 4
[7] = ^111In-trastuzumab-1.8 followed by 2.10 24 h post-mAb, euthanized 24 h later, SD, n = 4

Compound: O=C(O)CCCC(=O)Nc1cccnc1-c1nnc(-c2ncccc2NC(=O)CCCC(=O)O)nn1 [Compound 2.7, 5,5′-((2,2′-(1,2,4,5-Tetrazine-3,6-diyl)bis(pyridine-3,2-diyl))bis(azanediyl))bis(5-oxopentanoic acid)]
- decrease of radioactivity circulating in blood [1]: ca. 30%
- release (%) [2, 5]: 55.3^a %

Compound: O=C(CCCC(=O)Nc1cnccc1-c1nnc(-c2ccncc2NC(=O)CCCC(=O)NCCOCCOCCOCCOCCOCCOCCOCCOCCOCCO)nn1)NCCOCCOCCOCCOCCOCCOCCOCCOCCOCCO [Compound 2.10, N^1,N^1′-(4,4′-(1,2,4,5-Tetrazine-3,6-diyl)bis(pyridine-4,3-diyl))bis(N^5-(29-hydroxy-3,6,9,12,15,18,21,24,27-nonaoxanonacosyl)glutaramide)]
- radioactivity uptake in tumors versus control mice ([3]; euthanized 24 h later): somewhat lower
- radioactivity in blood ([3]; euthanized 24 h later (LS174T or BT-474)): 2-3 % ID/g
- release (%) ([2]; Label release from TCO derivative 1.14 on CC49, ^89Zr, PBS): 45.2%
- release (%) ([2]; Label release from TCO derivative 1.15 on CC49, ^89Zr, PBS): 50.0%
- release (%) ([2]; Label release from TCO derivative 1.17 on CC49, ^89Zr, PBS): 50.0%
- release (%) ([2]; Label release from TCO derivative 1.2 on trastuzumab, ^111In, 50% mouse plasma in PBS): 52.2%
- release (%) ([2]; Label release from TCO derivative 1.2 on trastuzumab, ^111In, PBS): 53.4%
- release (%) ([2]; Label release from TCO derivative 1.4 on trastuzumab, ^111In, PBS): 57.9%
- release (%) ([2]; Label release from TCO derivative 1.8 on CC49, ^111In, PBS): 79.9%
- release (%) ([2]; Label release from TCO derivative 1.8 on cetuximab, ^111In, PBS): 84.9%
- release (%) ([2]; Label release from TCO derivative 1.8 on girentuximab, ^111In, PBS): 83.6%
- release (%) ([2]; Label release from TCO derivative 1.8 on rituximab, ^111In, PBS): 82.5%
- release (%) [2, 5]: 82.4, 82.4^a %
- release (%) ([2]; Label release from TCO derivative 1.8 on trastuzumab, ^111In, PBS): 82.4, 82.4^a %
- release (%) ([2]; Label release from TCO derivative 1.8 on trastuzumab, ^177Lu, PBS): 81.2%
- reduction in blood radioactivity with respect to control mice ([4]; ^111In-trastuzumab-1.8 (ca. 0.5 mg/kg) followed by 2.10 (ca. 33.5 μmol/kg) either 1 h or 24 h post-mAb, 24 h after Cleaving Agent): ca. 70%
- ^111In biodistribution, Blood [4, 6]: 3.61 ± 0.44 % injected dose per gram
- ^111In biodistribution, Bone [4, 6]: 0.44 ± 0.03 % injected dose per gram
- ^111In biodistribution, Brain [4, 6]: 0.13 ± 0.08 % injected dose per gram
- ^111In biodistribution, Heart [4, 6]: 0.87 ± 0.10 % injected dose per gram
- ^111In biodistribution, Kidney L [4, 6]: 5.39 ± 0.84 % injected dose per gram
- ^111In biodistribution, Lg. intestine [4, 6]: 0.34 ± 0.07 % injected dose per organ
- ^111In biodistribution, Liver [4, 6]: 3.35 ± 0.10 % injected dose per gram
- ^111In biodistribution, Lung [4, 6]: 1.94 ± 0.43 % injected dose per gram
- ^111In biodistribution, Muscle [4, 6]: 0.27 ± 0.02 % injected dose per gram
- ^111In biodistribution, Sm. Intestine [4, 6]: 0.61 ± 0.04 % injected dose per organ
- ^111In biodistribution, Spleen [4, 6]: 1.19 ± 0.16 % injected dose per gram
- ^111In biodistribution, Blood [4, 7]: 2.91 ± 0.53 % injected dose per gram
- ^111In biodistribution, Bone [4, 7]: 0.65 ± 0.03 % injected dose per gram
- ^111In biodistribution, Brain [4, 7]: 0.11 ± 0.02 % injected dose per gram
- ^111In biodistribution, Heart [4, 7]: 0.93 ± 0.09 % injected dose per gram
- ^111In biodistribution, Kidney L [4, 7]: 4.75 ± 0.45 % injected dose per gram
- ^111In biodistribution, Lg. intestine [4, 7]: 0.56 ± 0.14 % injected dose per organ
- ^111In biodistribution, Liver [4, 7]: 4.68 ± 1.11 % injected dose per gram
- ^111In biodistribution, Muscle [4, 7]: 0.29 ± 0.05 % injected dose per gram
- ^111In biodistribution, Sm. Intestine [4, 7]: 1.04 ± 0.21 % injected dose per organ
- ^111In biodistribution, Spleen [4, 7]: 1.89 ± 0.17 % injected dose per gram
